Reference: patent US5665777A, “Biphenyl hydroxamate inhibitors of matrix metalloproteinases” (Abbott Laboratories, priority 1995, dated 1997)

Experiments:
[1] = biological target: T1, stromelysin (Homo sapiens, UniProt P08254); assay: Determination of stromelysin inhibition (cleavage of thiopeptide ester substrate, DTNB readout); type: biochemical; settings: for IC50: recombinant truncated human stromelysin, pH 6.5, 30 min, ambient temperature, read-out: IC50, inhibitory potency against stromelysin
T1 construct: made in house; host or cells: E. coli
Protocol: The inhibition of stromelysin by the compounds of this invention was determined as follows: Recombinant truncated stromelysin (human sequence) produced in E. coli was prepared by expression and purification of the protein as described by Ye et al., Biochemistry, 1992, 31, 11231-11235. The enzyme was assayed by its cleavage of the thiopeptide ester substrate Ac-Pro-Leu-Gly-[2-mercapto-4-methyl-pentanoyl]-Leu-Gly-OEt described by Weingarten and Feder, Anal Biochem., 1985, 147, 437-440 (1985), as a substrate of vertebrate collagenase. The reported conditions were modified to allow assays to be carried out in a microtiter plate. Upon hydrolysis of the thioester bond, the released thiol group reacts rapidly with 5,5'-dithio-bis(2-nitrobenzoic acid) (DTNB), producing a yellow color which is measured by a microtiter plate reader set al 405 nm. The rates of cleavage of the substrate by stromelysin in the presence or absence of inhibitors are measured in a 30 min assay at ambient temperature. Solutions of the compounds in DMSO are prepared, and these are diluted at various concentrations into the assay buffer (50 mM MES/NaOH pH 6.5 with 10 mM CaCl2 and 0.2% Pluronic F-68), which is also used for dilution of the enzyme and substrate. The potency of the compounds [IC50 ] are calculated from the inhibition/inhibitor concentration data.

[2] = test system: TNFα secretion; assay: HL-60 TNFα Release Assay (inhibition of TNFα secretion, ELISA); type: cell-based; settings: Homo sapiens, HL-60 cells, 40 nM phorbol myristate acetate, 20 hr at 37° C.
Protocol: The inhibition of TNFα secretion by the compounds of this invention was determined using a HL-60 TNFα Release Assay. HL-60 cells were cultured in RPMI 1640 with 10% fetal bovine serum and penicillin/streptomycin. HL-60 cells (150,000 cells/well) were placed in 96 well culture plates in RPMI 1640 with 10% fetal bovine serum and pen/strep containing 40 nM phorbol myristate acetate and test compound in DMSO (final DMSO 0.1%). HL-60 cells were then cultured for 20 hr at 37° C. (95% humidity) after which cell supernatants were collected for analysis of TNFα by ELISA.

T1 sequence (P08254 100-273 limits assumed): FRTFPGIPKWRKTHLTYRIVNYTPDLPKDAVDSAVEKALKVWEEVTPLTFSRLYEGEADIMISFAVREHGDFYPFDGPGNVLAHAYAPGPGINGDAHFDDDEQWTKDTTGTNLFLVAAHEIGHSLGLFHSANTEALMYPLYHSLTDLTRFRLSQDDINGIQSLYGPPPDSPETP

Row | Structure (SMILES) | IC50 [1] [nM] | inhibition at 16 µM [2] [%] | other results
1 | CCCc1ccc(-c2ccc(OCCCC(=O)NO)cc2)cc1 [Example 8, 4-[4-(4-propylphenyl)phenoxy]butanohydroxamic acid] | 10000 | 35 | 
2 | N#CCc1cccc(-c2ccc(OCCC(=O)NO)cc2)c1 [Example 42, 3-[4-(3-cyanomethylphenyl)phenoxy]propanohydroxamic acid] | 15 |  | 
3 | N#CCc1ccc(-c2ccc(OCCCC(=O)NO)cc2)cc1 [Example 5, 4-[4-(4-cyanomethylphenyl)phenoxy]butanohydroxamic acid] | 21000 | 82 | 
4 | O=C(CCCCOc1ccc(-c2ccc(F)cc2)cc1)NO [Example 39, 5-[4-(4-fluorophenyl)phenoxy]pentanohydroxamic acid] |  |  | inhibition at 100 µM [1]: 47%
5 | O=C(CCCCOc1cccc(-c2ccc(F)cc2)c1)NO [Example 12, 5-[3-(4-fluorophenyl)phenoxy]pentanohydroxamic acid] |  | 62 | inhibition at 100 µM [1]: 20%
6 | N#Cc1ccc(-c2ccc(OCCCC(=O)NO)cc2)cc1 [Example 3, 4-[4-(4-cyanophenyl)phenoxy]butanohydroxamic acid] | 3500 |  | 
7 | CC(C)(C)OC(=O)CC(CCOc1ccc(-c2ccc(C#N)cc2)cc1)C(=O)NO (stereo not shown) [Example 43, 2-tert-butyloxycarbonylmethyl-4-[4-(4-cyanophenyl)phenoxy]butanohydroxamic acid] | 490 |  | 
8 | N#Cc1ccc(-c2ccc(OCCCCCCC(=O)NO)cc2)cc1 [Example 11, 7-[4-(4-cyanophenyl)phenoxy]heptanohydroxamic acid] | 2300 | 77 | 
9 | O=C(CCCOc1ccc(-c2ccc(Cl)cc2)cc1)NO [Example 7, 4-[4-(4-chlorophenyl)phenoxy]butanohydroxamic acid] |  | 35 | inhibition at 100 µM [1]: 47%
10 | O=C(CCCCOc1ccc(-c2ccccc2)cc1)NO [Example 19, 5-[4-phenylphenoxy]pentanohydroxamic acid] |  | 61 | 
11 | O=C(CCCOc1cccc(-c2ccccc2)c1)NO [Example 2, 4-(3-phenylphenoxy)butanohydroxamic acid] |  |  | inhibition at 100 µM [1]: 5%
12 | COc1ccc(-c2ccc(OCCC(=O)NO)cc2)cc1 [Example 26, 3-[4-(4-methoxyphenyl)phenoxy]propanohydroxamic acid] | 79 |  | 
13 | CNC(=O)C(CCOc1ccc(-c2ccc(C#N)cc2)cc1)CC(=O)NO (stereo not shown) [Example 29, 3-(N-methylcarboxamido)-5-[4-(4-cyanophenyl)phenoxy]pentanohydroxamic acid] | 350 |  | 
14 | N#Cc1ccc(-c2ccc(OCCCCC(=O)NO)cc2)cc1 [Example 20, 5-[4-(4-cyanophenyl)phenoxy]pentanohydroxamic acid] |  | 50 | 
15 | O=C(Cc1ccc(-c2ccccc2)cc1)NO [Example 33, 2-(4-biphenyl)ethanohydroxamic acid] |  |  | inhibition at 100 µM [1]: 14%
16 | O=C(CCCCCCOc1ccc(-c2ccccc2)cc1)NO [Example 10, 7-(4-phenylphenoxy)heptanohydroxamic acid] |  |  | inhibition at 100 µM [1]: 45%
17 | N#CCc1ccc(-c2ccc(OCCC(=O)NO)cc2)cc1 [Example 44, 3-[4-(4-cyanomethylphenyl)phenoxy]propanohydroxamic acid] | 190 |  | 
18 | N#Cc1ccc(-c2cccc(OCCCCC(=O)NO)c2)cc1 [Example 14, 5-[3-(4-cyanophenyl)phenoxy]pentanohydroxamic acid] | 123000 | 64 | 
19 | O=C(CCCOc1cc(-c2ccccc2)ccc1O)NO [Example 41, 4-(2-hydroxy-5-phenylphenoxy)butanohydroxamic acid] |  |  | inhibition at 100 µM [1]: 36%
20 | N#Cc1ccc(-c2ccc(CCCC(=O)NO)cc2)cc1 [Example 35, 4-[4-(4-cyanophenyl)phenyl]butanohydroxamic acid] | 8300 |  | 
21 | N#CCc1cccc(-c2ccc(OCCCC(=O)NO)cc2)c1 [Example 6, 4-[4-(3-cyanomethylphenyl)phenoxy]butanohydroxamic acid] | 1900 | 40 | 
22 | N#Cc1ccc(-c2cccc(OCCCC(=O)NO)c2)cc1 [Example 16, 4-[3-(4-cyanophenyl)phenoxy]butanohydroxamic acid] | 24000 |  | 
23 | N#Cc1cccc(-c2cccc(OCCCC(=O)NO)c2)c1 [Example 17, 4-[3-(3-cyanophenyl)phenoxy]butanohydroxamic acid] | 2500 |  | 
24 | O=C(CCOc1cccc(-c2ccccc2)c1)NO [Example 24, 3-(3-phenylphenoxy)propanohydroxamic acid] |  | 59 | inhibition at 10 µM ([1]; @ 10 μM): 14%
25 | COc1ccc(-c2ccc(OCCCC(=O)NO)cc2)cc1 [Example 9, 4-[4-(4-methoxyphenyl)phenoxy]butanohydroxamic acid] | 34000 |  | 
26 | O=C(CCCOc1ccc(-c2ccccc2)cc1O)NO [Example 40, 4-(2-hydroxy-4-phenylphenoxy)butanohydroxamic acid] |  |  | inhibition at 100 µM [1]: 39%
27 | O=C(CCOc1ccc(-c2ccc(F)cc2)cc1)NO [Example 27, 3-[4-(4-fluorophenyl)phenoxy]propanohydroxamic acid] | 190 |  | 
28 | O=C(CCCOc1ccc(-c2ccccc2)cc1)NO [Example 1, 4-(4-phenylphenoxy)butanohydroxamic acid] |  | 27 | 
29 | N#Cc1cccc(-c2cccc(OCCCCC(=O)NO)c2)c1 [Example 13, 5-[3-(3-cyanophenyl)phenoxy]pentanohydroxamic acid] |  | 67 | inhibition at 100 µM [1]: 24%

More lines, main results first:

Row | IC50 [1] [nM] | Structure (SMILES) | inhibition at 16 µM [2] [%] | other results
30 | 2300 | O=C(NO)C(O)COc1ccc(-c2ccccc2)cc1 (stereo not shown) [Example 45, 2-hydroxy-3-[(4-phenyl)phenoxy]propanohydroxamic acid] |  | 
31 | 2100 | O=C(CCSc1ccc(-c2ccccc2)cc1)NO [Example 30, 3-(4-biphenylthio)propanohydroxamic acid] |  | 
32 | 150 | C[C@@H](COc1ccc(-c2ccccc2)cc1)C(=O)NO [Example 28, (S)2-methyl-3-(4-phenylphenoxy)propanohydroxamic acid] |  | 
33 | 880 | O=C(CSc1ccc(-c2ccccc2)cc1)NO [Example 31, 2-(4-biphenylthio)ethanohydroxamic acid] |  | 
34 | 30000 | O=C(CCc1ccc(-c2ccccc2)cc1)NO [Example 37, 3-(4-biphenyl)propanohydroxamic acid] |  | 
35 | 74000 | O=C(CCCOc1cccc(-c2ccc(F)cc2)c1)NO [Example 15, 4-[3-(4-fluorophenyl)phenoxy]butanohydroxamic acid] | 63 | 
36 | 77000 | O=C(CCCCCOc1ccc(-c2ccccc2)cc1)NO [Example 21, 6-[4-phenylphenoxy]hexanohydroxamic acid] |  | 
37 | 4600 | O=C(CCNc1ccc(-c2ccccc2)cc1)NO [Example 32, 3-(4-biphenylamino)propanohydroxamic acid] |  | 
38 | 1000 | O=C(CCCCc1ccc(-c2ccccc2)cc1)NO [Example 38, 5-(4-biphenyl)pentanohydroxamic acid] | 65 | 
39 | 74000 | O=C(CCCCOc1cccc(-c2ccccc2)c1)NO [Example 18, 5-[3-phenylphenoxy]pentanohydroxamic acid] | 62 | 
40 | 46000 | N#Cc1cccc(-c2ccc(OCCCC(=O)NO)cc2)c1 [Example 4, 4-[4-(3-cyanophenyl)phenoxy]butanohydroxamic acid] | 64 | 
41 | 58000 | O=C(CCCc1ccc(-c2ccccc2)cc1)NO [Example 34, 4-(4-biphenyl)butanohydroxamic acid] | 52 | 
